Literature values, collected in patent publication US5854247A, “Piperazine, piperidine and tetrahydropyridine derivatives useful as 5-HT1 recepter agonists” (Merck Sharp & Dohme Ltd., priority 1994, dated 1998).

Conditions: humans, therapeutic doses

## CNS(=O)(=O)Cc1ccc2[nH]cc(CCN(C)C)c2c1 [sumatriptan]
  adverse cardiovascular events: certain adverse cardiovascular events
